Measured values from PMC10146491, “Meroterpenoids from Gongolaria abies-marina against Kinetoplastids: In Vitro Activity and Programmed Cell Death Study” (Pharmaceuticals, 2023).

Experiments:
[1] = system: L. donovani promastigotes; assay: ATP level analysis (Cell Titer-Glo); type: cell-based, Leishmania donovani; conditions: IC90 of compound, 24 h
Description: (§1) To study the mechanism of cell death induced in parasites by compounds isolated from Gongolaria abies-marina, a common step was carried out to perform the following five experiments. The promastigotes of Leishmania spp. and epimastigotes of T. cruzi were incubated at the IC90 levels of the compounds (previously calculated) for 24 h at 26 °C. After incubation, the parasites were centrifuged at 3000 rpm for 10 min at 4 °C. The pellets were resuspended following the manufacturer’s instructions for each kit. After the incubation of promastigotes and epimastigotes of the parasites with the IC90 of the compounds, the changes in ATP levels were measured using a Cell Titer-Glo® Luminescent Cell Viability Assay (Promega, WI, USA). The assay was carried out in a white 96-well plate following the manufacturer’s instructions, as previously described by Cartuche et al. (2020). The luminescence was measured using an EnSpire® Multimode Plate Reader (PerkinElmer, Madrid, Spain).

[2] = system: T. cruzi epimastigotes; assay: ATP level analysis (Cell Titer-Glo); type: cell-based, Trypanosoma cruzi; conditions: IC90 of compound, 24 h
Description: as §1

[3] = system: L. amazonensis promastigotes; assay: ATP level analysis (Cell Titer-Glo); type: cell-based, Leishmania amazonensis; conditions: IC90 of compound, 24 h
Description: as §1

[4] = system: T. cruzi epimastigotes; assay: Mitochondrial membrane potential (JC-1 assay); type: cell-based, Trypanosoma cruzi; conditions: IC90, 24 h
Description: (§2) To study the mechanism of cell death induced in parasites by compounds isolated from Gongolaria abies-marina, a common step was carried out to perform the following five experiments. The promastigotes of Leishmania spp. and epimastigotes of T. cruzi were incubated at the IC90 levels of the compounds (previously calculated) for 24 h at 26 °C. After incubation, the parasites were centrifuged at 3000 rpm for 10 min at 4 °C. The pellets were resuspended following the manufacturer’s instructions for each kit. A JC-1 Mitochondrial Membrane Potential Assay Kit® (Cayman Chemical, Ann Arbor, MI, USA) was used to analyze variations in the mitochondrial membrane potential of the parasites after incubation at the IC90 levels of the compounds. After centrifugation, the parasites were resuspended in the same buffer and transferred to a black 96-well plate. JC-1 was added following the manufacturer’s instructions as also described by López-Arencibia et al. (2020). Green and red fluorescence was measured using an EnSpire® Multimode Plate Reader (PerkinElmer, Madrid, Spain).

[5] = system: intracellular amastigotes of L. amazonensis; assay: In vitro effect against amastigote stage in infected macrophages; type: cell-based, Leishmania amazonensis
Description: To determine the in vitro effect against the amastigote stage of L. amazonensis, murine macrophages were infected. In a sterile 96 well-plate, macrophages of the J774A.1 cell line were placed in RPMI 1640 to reach 10^5 macrophages per well. This plate was incubated at 37 °C in a 5% CO2 atmosphere. After one hour of incubation, 100 µL of stationary-phase promastigotes of 7-day-old culture was added in a 10:1 ratio (10^6 parasites per well) and the plates were re-incubated at 37 °C for 24 h to achieve maximum infection. Then, the wells were washed with fresh medium to remove non-phagocytosed promastigotes. The infected macrophages were treated with the compounds isolated for 24 h. Then, the medium was removed carefully to be replaced by 30 μL of 0.05% SDS and the plate was shaken for 30 s. After broke macrophages, 170 μL of Schneider’s medium was added to each well to give a final volume of 200 μL and 20 μL of Alamar Blue® was added to the plate being incubated at 26 °C for 72 h, as described by López-Arencibia et al. (2017). After 72 h of incubation, the plates were analyzed using the same protocol for the promastigote test.

[6] = system: epimastigotes of Trypanosoma cruzi; assay: Trypanocidal activity assay (Alamar Blue), epimastigotes; type: cell-based
Description: (§3) To carry out the experiments, promastigotes of Leishmania amazonensis (MHOM/BR/77/LTB0016) and L. donovani (MHOM/IN/90/GE1F8R) and epimastigotes of Trypanosoma cruzi (Y strain) were employed. Leishmania species were cultured in Schneider’s medium (Sigma-Aldrich, Madrid, Spain), supplemented with 10% fetal bovine serum (VWR, Biowest, Nuaillé, France) and incubated at 26 °C. RPMI 1640 medium (Gibco, Thermo Fisher, Madrid, Spain) with or without phenol red was also used to culture the parasites at the same temperature. Epimastigotes of T. cruzi were cultured in liver infusion tryptose (LIT) medium supplemented with 10% fetal bovine serum at 26 °C. A cytotoxicity assay was performed using a murine macrophage cell line J774A.1 (ATCC TIB-67), which was maintained in Dulbecco’s modified Eagle’s medium (Gibco, Thermo Fisher, Madrid, Spain) supplemented with 10% of fetal bovine serum at 37 °C in a 5% CO2 atmosphere.
(§4) With the objective of determining the antiparasitic activity of the compounds isolated from G. abies-marina, leishmanicidal activity assays were performed against promastigote stages of L. amazonensis and L. donovani, as well as a trypanocidal activity assay performed against epimastigote stages of T. cruzi. In both parasites, a colorimetric assay was used based on the Alamar Blue reagent (Life Technologies, Madrid, Spain) as previously described by Bethencourt-Estrella et al. (2021).
(§5) In a sterile 96 well-plate, serial dilutions of the extracts, fractions or compounds isolated from G. abies-marina were performed in RPMI 1640 medium without phenol red (in the case of Leishmania spp.) or in LIT (in the case of T. cruzi) with a final volume of 100 µL. Parasites were added to wells to reach a concentration of 5 × 10^5 (Leishmania spp.) or 2.5 × 10^5 (T. cruzi) until a final volume of 200 µL/well. Next, 10% of Alamar Blue® was placed into each well and the plate was incubated for 72 h at 26 °C. Finally, the fluorescence of each well was measured using an EnSpire® Multimode Plate Reader (Perkin Elmer, Madrid, Spain) (544 nm excitation, 590 nm emission) and the concentration that inhibits 50% of the parasite population (IC50) was calculated using a non-linear regression analysis with 95% confidence limits. Miltefosine and benznidazol were used as reference drugs. To analyze the data and calculate the IC50, SigmaPlot 12.0 statistical analysis software (Systat Software Inc, Palo Alto, CA, USA) was used.
(§6) The 50% inhibitory concentration (IC50) and 50% cytotoxic concentration (CC50) values were obtained using Sigma Plot 12.0 statistical analysis software (Systat Software) and calculated using a non-linear regression analysis with 95% confidence limits. Leishmanicidal and trypanocidal activity assays, as well as cytotoxicity assays, were performed three times on different days, and the results were expressed as means ± standard deviations. The analysis of variance was determined using a one-way ANOVA using the GraphPad.PRISM® 9.0 software program (GraphPad Software, San Diego, CA, USA). Differences at p < 0.05 were considered statistically significant.

[7] = Cytotoxicity assay (Alamar Blue); type: cell-based; conditions: mouse, J774A.1 murine macrophage cell line, J774A.1, 24 h, read-out: Cytotoxicity CC50, murine macrophages
Description: as §3
In a sterile 96-well plate, murine macrophages of the cell line J774A.1 were placed to reach an amount of 10^5 cells per well using RPMI 1640 medium without phenol red. After murine macrophage attachment, 50 µL serial dilutions of the isolated compounds were added in each well until reaching a final volume of 100 µL. Next, 10% of Alamar Blue® was placed into each well and the plate was incubated for 24 h at 37 °C with a 5% CO2 atmosphere. Finally, the plates were analyzed using an EnSpire® Multimode Plate Reader (PerkinElmer, Madrid, Spain), as described in the previous section, and the 50% cytotoxic concentration (CC50) values were calculated.
as §6

[8] = system: L. donovani promastigotes; assay: Mitochondrial membrane potential (JC-1 assay); type: cell-based, Leishmania donovani; conditions: IC90, 24 h
Description: as §2

[9] = system: promastigotes of L. donovani; assay: Leishmanicidal activity assay (Alamar Blue), promastigotes; type: cell-based, Leishmania donovani
Description: as §3, §4, §5, §6

[10] = system: L. amazonensis promastigotes; assay: Mitochondrial membrane potential (JC-1 assay); type: cell-based, Leishmania amazonensis; conditions: IC90, 24 h
Description: as §2

[11] = system: promastigotes of L. amazonensis; assay: Leishmanicidal activity assay (Alamar Blue), promastigotes; type: cell-based, Leishmania amazonensis
Description: as §3, §4, §5, §6

Which “ATP levels relative to negative control” value [1] does the source give for `COc1c(C)cc(O)cc1C/C=C(\C)CC(=O)/C=C(\C)CCCC(C)=O` [Cystomexicone B (1), cystomexicone B] here?
The value was “significantly decreased”.

And the “ATP levels relative to negative control” value [2]?
Its value is “significantly decreased”.

And the “ATP levels relative to negative control” value ([2]; listed as cystomexicone B (1))?
Its value is “most affected”.

And the “ATP levels relative to negative control” value [3]?
The value was “significantly decreased”.

What about the “Mitochondrial membrane potential changes (JC-1)” value [4] of the same compound?
The value was “does not produce significant changes”.

And the “Selectivity index (CC50/IC50), amastigotes of L. amazonensis” value ([5]; CC50 in murine macrophages)?
Its value is greater than 11.36.

And the IC50 ([5]; Leishmania amazonensis, J774.A1, intracellular amastigotes in J774A.1 macrophages, 24 h treatment)?
The IC50 was 24.6 ± 0.83 µM.

And the “Selectivity index (CC50/IC50), T. cruzi” value ([6]; CC50 in murine macrophages)?
The value was greater than 14.53.

And the IC50 ([6]; Trypanosoma cruzi, 72 h, Alamar Blue, read-out: Antikinetoplastid activity IC50, T. cruzi)?
Its IC50 is 19.2 ± 2.62 µM.

What about the CC50 at 24 h [7] of the same compound?
The CC50 at 24 h was greater than 279 µM.

What about the “Mitochondrial membrane potential changes (JC-1)” value [8] of the same compound?
The value was “does not produce significant changes”.

What about the “Selectivity index (CC50/IC50), L. donovani” value ([9]; CC50 in murine macrophages) of the same compound?
Its value is greater than 1.12.

And the IC50 ([9]; Leishmania donovani, 72 h, Alamar Blue, read-out: Antikinetoplastid activity IC50, L. donovani)?
Its IC50 is 248.3 ± 0.94 µM.

What about the “Mitochondrial membrane potential changes (JC-1)” value [10] of the same compound?
The value was “does not produce significant changes”.

What about the “Selectivity index (CC50/IC50), L. amazonensis” value ([11]; CC50 in murine macrophages) of the same compound?
Its value is greater than 7.61.

What about the IC50 ([11]; Leishmania amazonensis, 72 h, Alamar Blue, read-out: Antikinetoplastid activity IC50, L. amazonensis) of the same compound?
Its IC50 is 36.6 ± 4.24 µM.
